The source of these data is ChEMBL document CHEMBL4145470, “Efficient synthesis and first regioselective C-6 direct arylation of imidazo[2,1-c][1,2,4]triazine scaffold and their evaluation in H2O2-induced oxidative stress” (Eur J Med Chem, 2018).

Active and inactive are the calls of the source. No cut-off for these calls is given here.

Data set [1] deals with SH-SY5Y. The experiment in a line: Cytoprotective activity against H2O2-induced oxidative stress in human SH-SY5Y cells assessed as cell viability at 0.1 uM preincubated for 24 hrs followed by H2O2 addition and measured after 1 hr by MTT assay (reference value: 37.88 +/- 8.52%). Type of data set: functional. The conditions noted are these: read-out: Activity. In general terms: Tetrazolium assays rely on reduction of a dye to a coloured formazan, in cell work by metabolically active cells.

The test system of data set [2] is SH-SY5Y. In words: Cytoprotective activity against H2O2-induced oxidative stress in human SH-SY5Y cells assessed as cell viability at 1 uM preincubated for 24 hrs followed by H2O2 addition and measured after 1 hr by MTT assay (reference value: 37.88 +/- 8.52%). The format is functional. The conditions noted are these: read-out: Activity.
Data set [3] deals with Eukaryotic translation initiation factor 2 subunit 1 (Homo sapiens) (UniProt P05198). In words: Inhibition of H2O2-induced eIF2alpha phosphorylation in human SH-SY5Y cells at 0.1 uM. Type of data set: cell-based.
For data set [4], the target named is T1, MAP kinase p38 (Homo sapiens) (UniProt O15264+Q15759+Q16539+P53778). In words: Inhibition of H2O2-induced p38 MAPK phosphorylation in human SH-SY5Y cells at 0.1 uM. The format is cell-based.
The test system of data set [5] is SH-SY5Y. The experiment in a line: Cytoprotective activity against H2O2-induced oxidative stress in human SH-SY5Y cells assessed as cell viability at 10 uM preincubated for 24 hrs followed by H2O2 addition and measured after 1 hr by MTT assay (reference value: 37.88 +/- 8.52%). The conditions noted are these: read-out: Activity. The format is functional.
Data set [6] relates to SH-SY5Y. In words: Cytoprotective activity against H2O2-induced apoptosis in human SH-SY5Y cells assessed as increase in Bcl-2/Bax ratio at 0.1 uM preincubated for 24 hrs followed by H2O2 addition measured after 1 hr by Western blot analysis. Type of data set: functional, cell-based. A general note: In western blotting, separated proteins are transferred to a membrane and probed.

Data set [7] concerns SH-SY5Y. In words: Cytoprotective activity against H2O2-induced apoptosis in human SH-SY5Y cells assessed as decrease in Bax levels at 0.1 uM preincubated for 24 hrs followed by H2O2 addition measured after 1 hr by Western blot analysis. The format is functional, cell-based.
The test system of data set [8] is SH-SY5Y. The experiment in a line: Cytoprotective activity against H2O2-induced apoptosis in human SH-SY5Y cells assessed as relative Bcl-2 levels at 0.1 uM preincubated for 24 hrs followed by H2O2 addition measured after 1 hr by Western blot analysis (reference value: 2.084 +/- 0.078). Type of data set: functional.
Data set [9] deals with SH-SY5Y. In words: Cytoprotective activity against H2O2-induced oxidative stress in human SH-SY5Y cells assessed as increase in cell viability preincubated for 24 hrs followed by H2O2 addition and measured after 1 hr by MTT assay. Type of data set: functional, cell-based.
The subject of data set [10] is SH-SY5Y. In words: Cytotoxicity against human SH-SY5Y cells at 1 to 10 uM after 24 hrs by MTT assay. Type of data set: cell-based.
In data set [11] the target is Eukaryotic translation initiation factor 2 subunit 1 (Homo sapiens) (UniProt P05198). The experiment in a line: Inhibition of H2O2-induced eIF2alpha phosphorylation in human SH-SY5Y cells at 1 uM. Type of data set: cell-based.
In data set [12] the target is T2, Mitogen-activated protein kinase; ERK1/ERK2 (Homo sapiens) (UniProt P27361+P28482). In words: Inhibition of H2O2-induced p44/42 MAPK phosphorylation in human SH-SY5Y cells at 1 uM. The format is cell-based.
Data set [13] is described as follows: Cytoprotective activity against H2O2-induced apoptosis in human SH-SY5Y cells assessed as relative cleaved caspase-7 levels at 1 uM (reference value: 1.025 +/- 0.120).
For data set [14], the target named is RAC-alpha serine/threonine-protein kinase (Homo sapiens) (UniProt P31749). The experiment in a line: Induction of Akt phosphorylation in H2O2-treated human SH-SY5Y cells at 1 uM by ELISA. The format is cell-based. For orientation: In an ELISA, binding on a coated surface is turned into a signal by an enzyme label.
The target of data set [15] is T1, MAP kinase p38 (Homo sapiens). In words: Inhibition of H2O2-induced p38 MAPK phosphorylation in human SH-SY5Y cells at 1 uM. The format is cell-based.
The subject of data set [16] is SH-SY5Y. The experiment in a line: Cytoprotective activity against H2O2-induced apoptosis in human SH-SY5Y cells assessed as relative cleaved PARP levels at 1 uM (reference value: 0.725 +/- 0.06). Type of data set: functional.
The subject of data set [17] is SH-SY5Y. The experiment in a line: Cytoprotective activity against H2O2-induced apoptosis in human SH-SY5Y cells assessed as relative cleaved caspase-3 levels at 1 uM (reference value: 0.875 +/- 0.035). The format is functional.
For data set [18], the target named is RAC-alpha serine/threonine-protein kinase (Homo sapiens) (UniProt P31749). The experiment in a line: Induction of Akt phosphorylation in H2O2-treated human SH-SY5Y cells assessed as increase in pBad levels at 1 uM by ELISA. Type of data set: cell-based.
The subject of data set [19] is SH-SY5Y. In words: Cytoprotective activity against H2O2-induced apoptosis in human SH-SY5Y cells assessed as relative cleaved PARP levels at 0.1 uM (reference value: 0.725 +/- 0.06). The format is functional.
Data set [20] deals with T2, Mitogen-activated protein kinase; ERK1/ERK2 (Homo sapiens). The experiment in a line: Inhibition of H2O2-induced p44/42 MAPK phosphorylation in human SH-SY5Y cells at 0.1 uM. The format is cell-based.
For data set [21], the system named is SH-SY5Y. In words: Cytoprotective activity against H2O2-induced apoptosis in human SH-SY5Y cells assessed as relative cleaved caspase-7 levels at 0.1 uM (reference value: 1.025 +/- 0.120). Type of data set: functional.
Data set [22] has as its system SH-SY5Y. The experiment in a line: Cytoprotective activity against H2O2-induced apoptosis in human SH-SY5Y cells assessed as relative cleaved caspase-3 levels at 0.1 uM (reference value: 0.875 +/- 0.035). The format is functional.

Sequence of Eukaryotic translation initiation factor 2 subunit 1 (Homo sapiens) (P05198 whole entry): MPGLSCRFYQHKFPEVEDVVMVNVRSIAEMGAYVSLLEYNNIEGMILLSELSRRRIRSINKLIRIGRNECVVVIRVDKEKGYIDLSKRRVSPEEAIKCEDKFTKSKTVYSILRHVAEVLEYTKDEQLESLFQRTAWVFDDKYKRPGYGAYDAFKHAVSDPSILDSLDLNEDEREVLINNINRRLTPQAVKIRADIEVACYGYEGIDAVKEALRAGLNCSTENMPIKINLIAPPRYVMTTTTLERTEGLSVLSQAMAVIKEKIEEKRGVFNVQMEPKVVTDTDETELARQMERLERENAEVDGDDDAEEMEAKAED
T2 sequence (P27361 whole entry, looked up): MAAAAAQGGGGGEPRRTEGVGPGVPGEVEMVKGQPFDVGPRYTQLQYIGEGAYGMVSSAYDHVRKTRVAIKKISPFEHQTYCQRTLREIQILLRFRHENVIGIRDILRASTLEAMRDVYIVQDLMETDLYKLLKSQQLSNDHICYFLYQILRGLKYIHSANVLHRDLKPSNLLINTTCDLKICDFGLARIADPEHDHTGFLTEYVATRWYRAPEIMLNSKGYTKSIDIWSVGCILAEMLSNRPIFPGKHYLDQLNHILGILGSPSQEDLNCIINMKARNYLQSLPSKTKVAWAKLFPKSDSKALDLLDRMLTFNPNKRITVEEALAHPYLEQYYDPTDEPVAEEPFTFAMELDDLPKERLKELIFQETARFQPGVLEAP
T2 sequence (P28482 whole entry, looked up): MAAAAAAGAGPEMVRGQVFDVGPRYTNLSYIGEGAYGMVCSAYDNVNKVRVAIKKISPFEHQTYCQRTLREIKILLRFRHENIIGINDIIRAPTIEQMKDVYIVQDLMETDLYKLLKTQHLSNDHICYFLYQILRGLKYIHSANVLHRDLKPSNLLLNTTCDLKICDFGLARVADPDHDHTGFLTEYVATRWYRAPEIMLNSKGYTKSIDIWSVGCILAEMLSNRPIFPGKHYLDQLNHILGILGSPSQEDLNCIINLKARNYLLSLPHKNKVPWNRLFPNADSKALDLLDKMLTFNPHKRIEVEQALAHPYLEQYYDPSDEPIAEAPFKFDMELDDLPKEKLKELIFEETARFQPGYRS
Sequence of RAC-alpha serine/threonine-protein kinase (Homo sapiens) (P31749 whole entry): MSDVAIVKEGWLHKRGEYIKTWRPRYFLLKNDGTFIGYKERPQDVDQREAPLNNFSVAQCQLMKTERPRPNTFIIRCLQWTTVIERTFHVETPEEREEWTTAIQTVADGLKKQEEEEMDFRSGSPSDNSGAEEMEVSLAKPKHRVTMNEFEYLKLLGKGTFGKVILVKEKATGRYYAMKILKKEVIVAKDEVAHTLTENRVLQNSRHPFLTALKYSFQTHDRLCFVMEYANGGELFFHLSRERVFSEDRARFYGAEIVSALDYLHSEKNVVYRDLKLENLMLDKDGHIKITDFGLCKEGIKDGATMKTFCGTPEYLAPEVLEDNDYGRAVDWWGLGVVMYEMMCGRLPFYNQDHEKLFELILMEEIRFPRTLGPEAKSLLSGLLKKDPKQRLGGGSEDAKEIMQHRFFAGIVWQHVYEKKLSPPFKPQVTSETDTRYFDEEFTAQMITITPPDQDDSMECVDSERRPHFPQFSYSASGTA

As to `FC(F)(F)c1ccc(-c2cn3ccnnc3n2)cc1`, the viability at 0.1 µM in the data set with SH-SY5Y [1] is 85.1%. Also, in the data set on SH-SY5Y [2], the viability at 1 µM worked out at 59.1%. In data set [3], the inhibition result is “inactive”. The inhibition result in data set [4] is “Active”. Moreover, in the data set with SH-SY5Y [5], the viability at 10 µM was determined as 60.8%. Besides, the outcome with SH-SY5Y [6] and with SH-SY5Y [7] was Active. Besides, the “fold change (FC)” value in the data set on SH-SY5Y [8] was 2.923. For the same compound, the Activity result was “Dose-dependent effect” in the data set on SH-SY5Y [9] and “Non-Toxic” with SH-SY5Y [10].
Regarding `COc1ccc(-c2nc3nnccn3c2-c2ccc(C)cc2)cc1`, the inhibition result in data set [11] was “inactive”. In addition, the inhibition entry in data set [12] and in data set [15] was “Active” throughout. Also, the viability at 0.1 µM with SH-SY5Y [1] was determined as 55.3%. The viability at 1 µM in the data set with SH-SY5Y [2] was 67.4%. The fold change (FC) worked out at 0.856 in data set [13], 0.581 in the data set on SH-SY5Y [16] and 0.628 with SH-SY5Y [17]. The outcome in [14] and in [18] was Active. Moreover, the viability at 10 µM with SH-SY5Y [5] was found to be 63.3%. Besides, the Activity entry with SH-SY5Y [9] is “Dose-dependent effect”; with SH-SY5Y [10], “Non-Toxic”.
Regarding `COc1cccc(-c2cn3ccnnc3n2)c1`, the entries for the “fold change (FC)” value in the data set with SH-SY5Y [19], with SH-SY5Y [21] and in the data set on SH-SY5Y [22] were 0.48, 0.815 and 0.595, respectively. In addition, the viability at 0.1 µM in the data set on SH-SY5Y [1] stood at 73.8%. The viability at 1 µM with SH-SY5Y [2] is 62.8%. The inhibition result in [3] is “inactive”. Besides, the inhibition result in data set [4] and in [20] was “Active” in each case. In the data set with SH-SY5Y [5], the viability at 10 µM came to 65%. In the data set on SH-SY5Y [7], the outcome was Active. The Activity entry was “Dose-dependent effect” with SH-SY5Y [9] and “Non-Toxic” with SH-SY5Y [10].
